Here are results for three compounds from US5498605A (priority 1994, dated 1996).

Molecules are shown by their SMILES.

Data set [1] can be described thus: Sedation in rats after i.p. injection. It is filed as in vivo, rat. Conditions: 25 and 50 mg/kg i.p., during one hour.
Data set [2] relates to lipolysis. Briefly: In vivo lipolysis (serum glycerol) in rats. Details: species or system rat. Conditions: for lowering of serum glycerol levels: at 60 min. The procedure: Sprague Dawley rats (200-250 g) were fasted overnight. A blood sample was taken from the tail vein 10 sec before the subcutaneous injection of the drug in vehicle (10% DMSO in saline). Additional blood samples were taken from the tail vein at 30, 60 and 90 min post-injection and were kept on ice and centrifuged (1000 Xg) within one-half hour. A perchloric acid extract (3%) of plasma was neutralized with potassium hydroxide, 3-[N-morpholino]propanesulfonic acid, and then assayed for glycerol as described in Eggstein, et al., Methods of Enzymatic Analysis (H. U. Bermeyer ed., 1974), pp. 1825-1831.

Data set [3] has as its system lipolysis. Briefly: In vivo lipolysis (serum glycerol) in rats. As to conditions: post i.p. injection. Details: species or system rat.
For data set [4], the target named is T1, A1 adenosine receptors (Rattus norvegicus, UniProt P25099).
T1 construct: Rat cerebral cortical membranes and striatal membranes were prepared; from tissue; host or cells: rat cerebral cortical membranes
T1 sequence (P25099 1-326): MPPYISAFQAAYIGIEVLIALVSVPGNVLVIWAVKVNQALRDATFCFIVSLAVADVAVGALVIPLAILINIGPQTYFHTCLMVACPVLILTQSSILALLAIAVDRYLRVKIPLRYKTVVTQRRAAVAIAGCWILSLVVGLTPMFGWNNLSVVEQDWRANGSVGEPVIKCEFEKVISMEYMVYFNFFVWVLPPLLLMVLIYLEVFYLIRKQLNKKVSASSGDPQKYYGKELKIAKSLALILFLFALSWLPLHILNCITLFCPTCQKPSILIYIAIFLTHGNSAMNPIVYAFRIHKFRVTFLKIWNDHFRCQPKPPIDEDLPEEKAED
Briefly: Inhibition of [3H]N6-phenylisopropyladenosine binding to A1 adenosine receptors in rat cerebral cortex membranes. Conditions: for Ki: rat brain, vs 1.0 nM [3H]PIA, read-out: A1-Receptor Ki.
Description: Bound and free radioligand were separated by addition of 4 mL of a solution containing 50 mM Tris hydrochloride, at pH 7.4 at 5° C., followed by vacuum filtration using a Brandel Cell Harvester (Brandel, Gaithersburg, Md.) and a Whatman GF/B glass fiber filter with additional washes totaling 12 mL of buffer.
(§1) At least seven different concentrations spanning four orders of magnitude, adjusted appropriately for the IC50 of each compound, were used.

Data set [5] has as its target T2, A2 adenosine receptors (Rattus norvegicus, UniProt P30543). Briefly: Inhibition of [3H]CGS 21680 binding to A2 receptors in rat striatal membranes. Details: Rat cerebral cortical membranes and striatal membranes were prepared; from tissue; host or cells: rat striatal membranes. As to conditions: rat striatum.
Description: Membranes (about 80 μg protein, 5 mg wet weight, per tube) were incubated for one hour at 25° C. in a total volume of 1 mL. […] Filtration was carried out using a Brandel Cell Harvester, as above.
as §1
The nature of data set [6]: Rectal temperature in rats. It is filed as in vivo, rat. Conditions: Sprague Dawley rats, vehicle caused small rise (approximately 1° C.). The procedure:
Rectal temperature was then recorded.

In data set [7] the test system is synaptic potentials (fEPSPs) in CA1 region of hippocampal slices. Briefly: Inhibition of synaptic potentials (fEPSPs) in hippocampal slices (species not specified for this result). Details: species or system adult rats and gerbils. The procedure:
Hippocampal slices were prepared from adult rats (200-300 g) and gerbils as described in Lee et al., Electrophysiology of Isolated Mammalian CNS Preparation (G. A. Kerkut and H. V. Wheat, eds. 1981), pp. 189-211. Field excitatory postsynaptic potentials (fEPSPs) were recorded in the stratum radiatum of the CA1 region in response to stimulation of Schaffer collateral/commisural afferents. Slices were superfused continuously with artificial cerebrospinal fluid (ACSF; described in Lee et al., and fEPSPs were sampled every 15 seconds.
The amplitude of fEPSPs responses was measured on-line and plotted over the time course of each experiment. The magnitude of the inhibitory effect of a compound on fEPSP amplitude was expressed as the percentage inhibition, according to the formula: Percentage inhibition=[(Amplitude in ACSF only--Amplitude in drug)[…]Amplitude in ACSF only]×100.

The target of data set [8] is T2, A2 adenosine receptors. In words: Competitive binding at A2 receptors versus [3H]NECA (footnote c). As to conditions: read-out: A2-Receptor Ki.
Data set [9] addresses T3, A1 adenosine receptors (Bos taurus, UniProt P28190).
T3 construct: calf brain; from tissue; host or cells: calf brain
T3 sequence (P28190 1-326): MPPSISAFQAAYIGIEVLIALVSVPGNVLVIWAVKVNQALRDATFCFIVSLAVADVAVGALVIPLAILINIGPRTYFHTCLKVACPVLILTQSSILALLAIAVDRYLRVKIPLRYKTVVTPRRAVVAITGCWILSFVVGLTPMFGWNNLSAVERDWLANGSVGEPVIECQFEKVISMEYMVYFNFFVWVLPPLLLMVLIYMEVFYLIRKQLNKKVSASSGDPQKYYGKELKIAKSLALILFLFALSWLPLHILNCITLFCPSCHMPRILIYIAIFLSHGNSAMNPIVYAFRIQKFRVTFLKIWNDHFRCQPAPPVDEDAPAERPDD
Briefly: Competitive binding at A1 receptors, calf brain (footnote f). As to conditions: read-out: A1-Receptor Ki.

T2 sequence (P30543 whole entry): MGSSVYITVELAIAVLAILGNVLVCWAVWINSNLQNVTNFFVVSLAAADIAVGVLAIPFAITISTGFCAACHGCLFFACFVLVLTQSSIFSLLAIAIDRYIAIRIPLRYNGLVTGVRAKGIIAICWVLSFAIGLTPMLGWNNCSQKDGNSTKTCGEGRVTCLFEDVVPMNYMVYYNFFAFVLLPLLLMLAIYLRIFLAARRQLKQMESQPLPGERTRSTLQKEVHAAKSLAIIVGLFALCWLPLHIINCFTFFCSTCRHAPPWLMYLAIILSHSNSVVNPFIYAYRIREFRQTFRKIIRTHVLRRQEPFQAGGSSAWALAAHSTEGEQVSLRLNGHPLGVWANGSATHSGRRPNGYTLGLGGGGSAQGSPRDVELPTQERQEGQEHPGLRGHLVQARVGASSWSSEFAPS

Usually Ki stands for the dissociation constant of the complex between target and ligand, obtained from inhibition or displacement. The IC50 is the point on the concentration scale where inhibition reaches its midpoint. The low end stands for inhibition by little substance, the high end for a need for much substance. Turning to `O=S(=O)(O)c1ccc(CCCNc2ncnc3c2ncn3[C@@H]2O[C@H](CO)[C@@H](O)[C@H]2O)cc1` [3-p-sulfophenylpropyl, N^6-3-p-sulfophenylpropyladenosine], in data set [1], the sedation entry is “moderate sedation”. Also, the “lowering of serum glycerol levels” value turned out to be 30% in the data set on lipolysis [2] (0.5 mg/kg) and 34% in the data set on lipolysis [2] (1.0 mg/kg). The “effect on serum glycerol levels (inhibition of lipolysis, in words)” value in the data set on lipolysis [2] (doses of 0.1-1.0 mmol/kg) was “lower serum glycerol levels”. The “time of maximum effect on serum glycerol” value in the data set on lipolysis [3] was in the range of 30 to 60 min. Moreover, the Ki on A1 adenosine receptors [4] amounted to 610 ± 39 nM. In addition, the “affinity for the A1 cortical receptors (in words)” value on A1 adenosine receptors [4] (rat cerebral cortex) is “demonstrated affinity”. The “affinity for the A2 striatal receptors (in words)” value on A2 adenosine receptors [5] is “demonstrated affinity”. For the same compound, the rectal temperature result in data set [6] (i.c.v.) and in data set [6] (i.p.) was “caused rectal temperature depression” each time. Besides, the onset of action result in data set [7] (compared with adenosine and CPA) was “slightly slower onset of action in this assay than adenosine itself, but a faster onset of action than CPA”. Also, in data set [7] (hippocampal slices), the IC50 came to 1700 nM. Further, the agonist action result in data set [7] (hippocampal slices) is given as “clearly acts as an agonist”.

As for `OC[C@H]1O[C@@H](n2cnc3c(Nc4ccccc4)ncnc32)[C@H](O)[C@@H]1O` [phenyl, reference compound], the “Affinity ratio A1/A2” value at A1 adenosine receptors [4] amounted to 190. Moreover, the Ki on A1 adenosine receptors [4] amounted to 3.5 ± 0.5 nM; on A2 adenosine receptors [8], 663 nM.

As for `CCCCCCCCCCNc1ncnc2c1ncn2[C@@H]1O[C@H](CO)[C@@H](O)[C@H]1O` [decyl], on A1 adenosine receptors [9], the Ki is 21 nM.
